Source: article PMC7044277 (Nature Communications, 2020)
“And” between values parts separate entries of the source, which are not always exact repeats. Equal values may be shown once.

Key:
Type in all cases: cell-based
320 non-olfactory GPCRs [1] = target: T1, 320 non-olfactory GPCRs (Homo sapiens, UniProt P30518)
T1 construct: expressed in transfected cells; host or cells: HTLA cells

320 non-olfactory GPCRs [2] = target: T2, 320 non-olfactory GPCRs (Homo sapiens, UniProt P51685)
T2 construct: expressed in transfected cells; host or cells: HTLA cells

320 non-olfactory GPCRs [3] = target: T3, 320 non-olfactory GPCRs (Homo sapiens, UniProt Q8TDS7); details: receptor MRGPRD; replicate values, Fig_4g
T3 construct: expressed in transfected cells; host or cells: HTLA cells

320 non-olfactory GPCRs [4] = target: T4, 320 non-olfactory GPCRs (Homo sapiens, UniProt Q9HB89); details: receptor NMUR1; replicate values, Fig_4g
T4 construct: expressed in transfected cells; host or cells: HTLA cells
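Throughout, for Fold of Basal: compound tested at 1 µM final concentration.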
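Throughout, for GPCRome agonism screen response: fold over basal response of each receptor without drug.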

T3 sequence (Q8TDS7 whole entry): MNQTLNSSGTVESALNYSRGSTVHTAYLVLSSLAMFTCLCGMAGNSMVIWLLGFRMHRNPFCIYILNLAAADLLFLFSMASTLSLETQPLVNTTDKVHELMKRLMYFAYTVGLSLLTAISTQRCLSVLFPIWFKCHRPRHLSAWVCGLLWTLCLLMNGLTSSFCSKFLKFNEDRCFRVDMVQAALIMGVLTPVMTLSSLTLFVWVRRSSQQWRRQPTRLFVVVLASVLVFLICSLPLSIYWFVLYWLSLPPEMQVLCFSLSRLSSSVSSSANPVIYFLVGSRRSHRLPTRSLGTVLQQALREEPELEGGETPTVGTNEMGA
T4 sequence (Q9HB89 whole entry): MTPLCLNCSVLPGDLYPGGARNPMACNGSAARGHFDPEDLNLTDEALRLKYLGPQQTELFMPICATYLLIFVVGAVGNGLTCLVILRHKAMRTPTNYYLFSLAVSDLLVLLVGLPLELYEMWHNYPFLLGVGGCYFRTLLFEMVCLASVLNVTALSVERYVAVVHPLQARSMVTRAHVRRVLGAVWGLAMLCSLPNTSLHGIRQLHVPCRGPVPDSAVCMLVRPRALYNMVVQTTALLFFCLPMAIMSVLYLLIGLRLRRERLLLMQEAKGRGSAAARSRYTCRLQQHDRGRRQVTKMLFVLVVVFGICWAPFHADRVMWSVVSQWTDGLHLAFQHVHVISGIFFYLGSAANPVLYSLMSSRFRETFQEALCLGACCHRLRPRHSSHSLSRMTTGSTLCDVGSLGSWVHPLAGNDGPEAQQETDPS
T1 sequence (P30518 whole entry): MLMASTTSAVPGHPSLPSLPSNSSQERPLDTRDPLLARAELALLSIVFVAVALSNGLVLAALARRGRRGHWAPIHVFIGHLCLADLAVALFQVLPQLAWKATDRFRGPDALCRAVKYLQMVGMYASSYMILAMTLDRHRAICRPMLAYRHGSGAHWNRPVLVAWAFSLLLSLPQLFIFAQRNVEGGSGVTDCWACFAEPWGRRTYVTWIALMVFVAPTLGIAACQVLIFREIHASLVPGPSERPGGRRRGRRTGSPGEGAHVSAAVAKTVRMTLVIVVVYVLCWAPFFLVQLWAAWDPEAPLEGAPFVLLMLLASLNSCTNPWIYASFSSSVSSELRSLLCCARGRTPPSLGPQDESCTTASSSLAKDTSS
T2 sequence (P51685 whole entry): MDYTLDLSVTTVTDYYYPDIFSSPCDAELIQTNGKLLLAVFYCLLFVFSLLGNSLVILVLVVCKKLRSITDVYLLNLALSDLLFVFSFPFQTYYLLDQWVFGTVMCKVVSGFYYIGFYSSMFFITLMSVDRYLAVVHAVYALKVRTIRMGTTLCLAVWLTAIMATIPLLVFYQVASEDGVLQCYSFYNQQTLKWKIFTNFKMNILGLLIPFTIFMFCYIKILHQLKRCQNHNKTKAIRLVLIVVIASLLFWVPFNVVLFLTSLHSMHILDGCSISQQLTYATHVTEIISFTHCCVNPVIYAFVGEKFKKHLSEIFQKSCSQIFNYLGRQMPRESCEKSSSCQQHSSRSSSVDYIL

## CCOc1cccc2cc(C(C)NCC3(O)CCCCC3)oc12 (stereo not shown) [O4LE6]
320 non-olfactory GPCRs [1]
  Fold of Basal: 1.01 and 0.8337 and 0.9883 and 1.294
320 non-olfactory GPCRs [2]
  Fold of Basal: 1.057 (2×) and 0.6946 and 0.6945
320 non-olfactory GPCRs [3]
  GPCRome agonism screen response: 1.227 and 0.5077 and 1.775 and 0.8477
320 non-olfactory GPCRs [4]
  GPCRome agonism screen response: 1.001 and 1.011 and 0.9191 and 1.865
